Laboratory results from patent publication US9403829B2, “Pharmaceutical compositions of 7-(6-(2-hydroxypropan-2-yl)pyridin-3-yl)-1-((trans)-4-methoxycyclohexyl)-3,4-dihydropyrazino [2,3-b]pyrazin-2(1H)-one, a solid form thereof and methods of their use” (Signal Pharmaceuticals, LLC, priority 2011, dated 2016).
Read-outs that look alike come from different tables or passages of the source.

Test: Phase 1 crossover pharmacokinetic study of tablet and capsule formulations, single oral dose
Assay type: in vivo, human
Settings: male, human, plasma, oral; for AUC(0-t): read-out: AUC0-24
Procedure: Certain formulations provided herein were evaluated in a Phase 1, open-label, randomized, crossover study.
On Day 1 of Period 1, following an overnight fast of at least 8 hours, subjects were randomized to one of the following 3 sequences to receive Treatment A, B or C (Table 30).
In Treatment A, one 20-mg reference Compound A API-in-capsule was administered orally after at least 8 hour fast with 240 mL of non-carbonated, room temperature water. In Treatment B, one 20-mg tablet of Compound A (Tablet Formulation XIII) was administered under fasted conditions. In Treatment C, four 5-mg tablets of Compound A (Tablet Formulation XIV) were administered under fasted conditions. The 20-mg tablet and four 5-mg tablets were administered orally after at least 8 hour fast with 240 mL of non-carbonated, room temperature water.
For each period, serial blood samples were collected before dosing (zero hour) and at 0.5, 1, 1.5, 2, 2.5, 3, 4, 6, 8, 12, 24, 48, 72, and 96 hours after dosing. Plasma concentrations of Compound A were determined for determining PK parameters, such as […], AUC0-∞, Cmax, Tmax, t1/2, CL/F, and Vz/F for Compound A. Plasma PK parameters were calculated using non compartmental methods. Analyses of variance (ANOVA) were performed on the natural log-transformed AUC0-t, AUC0-∞, and Cmax for Compound A. The geometric mean ratios (test/reference) and their 90% confidence intervals were also calculated. For Tmax, non parametric analysis was used to produce median differences.

[1] = upon administration of about 20 mg of Compound A (protocol of Section 6.5.1)
[2] = Treatment A: one 20-mg Compound A API-in-capsule, fasted, n = 18, geometric mean

## CC(C)(O)c1ccc(-c2cnc3c(n2)N([C@H]2CC[C@H](O)CC2)C(=O)CN3)cn1 [O-Desmethyl metabolite, 1-((1r,4r)-4-hydroxycyclohexyl)-7-(6-(2-hydroxypropan-2-yl)pyridin-3-yl)-3,4-dihydropyrazino[2,3-b]pyrazin-2(1H)-one]
[1]
  Cmax: 503 ng/mL
  Tmax: 3 h
  half-life: 14.3 h
  AUC(0-t): 7480 ng·h/mL
Upon administration of about 20 mg of Compound A (protocol of Section 6.5.1), read-out: AUC∞
  AUC(0-inf): 11900 ng·h/mL
[2]
  half-life: 14.3 h
  Cmax: 503 ng/mL
  AUC(0-t): 7480 ng·h/mL
Treatment A: one 20-mg Compound A API-in-capsule, fasted, healthy adult males, n = 18, median
  Tmax: 3 h
Treatment A: one 20-mg Compound A API-in-capsule, fasted, n = 18, geometric mean, read-out: AUC0-∞
  AUC(0-inf): 11900 ng·h/mL
